SMILES strings stand for the structures.

The values that follow come from article PMC6859627, “Growth of the facultative chemolithoautotroph Ralstonia eutropha on organic waste materials: growth characteristics, redox regulation and hydrogenase activity” (Microbial Cell Factories, 2019).

In assay [1] the target is T1, SH (cytoplasmic, soluble hydrogenase) (Cupriavidus necator, UniProt P22317).
T1 construct: gene hoxF; native enzyme in soluble protein fraction of cell extract; hetero-hexamer HoxHYFUI2; with NAD-reducing hydrogenase HoxS subunit beta; NAD-reducing hydrogenase HoxS subunit gamma; NAD-reducing hydrogenase HoxS subunit delta; NAD-reducing hydrogenase subunit HoxI
T1 sequence (P22317 whole entry): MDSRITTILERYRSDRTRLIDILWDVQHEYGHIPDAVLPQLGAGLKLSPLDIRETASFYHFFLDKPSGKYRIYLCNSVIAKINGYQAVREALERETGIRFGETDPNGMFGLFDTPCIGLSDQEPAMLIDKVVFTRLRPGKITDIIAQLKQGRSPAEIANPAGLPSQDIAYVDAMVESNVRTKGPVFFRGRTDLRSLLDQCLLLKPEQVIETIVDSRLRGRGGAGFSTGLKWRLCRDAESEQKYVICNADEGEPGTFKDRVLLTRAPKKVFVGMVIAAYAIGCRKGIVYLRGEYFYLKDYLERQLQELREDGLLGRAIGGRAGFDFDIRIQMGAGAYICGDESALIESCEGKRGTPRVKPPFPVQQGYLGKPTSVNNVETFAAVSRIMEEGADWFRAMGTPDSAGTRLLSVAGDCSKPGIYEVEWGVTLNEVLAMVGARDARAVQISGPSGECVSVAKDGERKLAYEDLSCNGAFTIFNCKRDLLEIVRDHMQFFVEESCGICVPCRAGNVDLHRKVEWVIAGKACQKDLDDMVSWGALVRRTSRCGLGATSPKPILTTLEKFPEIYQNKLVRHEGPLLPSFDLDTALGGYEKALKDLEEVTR
T1 sequence (P22318 2-234 partner): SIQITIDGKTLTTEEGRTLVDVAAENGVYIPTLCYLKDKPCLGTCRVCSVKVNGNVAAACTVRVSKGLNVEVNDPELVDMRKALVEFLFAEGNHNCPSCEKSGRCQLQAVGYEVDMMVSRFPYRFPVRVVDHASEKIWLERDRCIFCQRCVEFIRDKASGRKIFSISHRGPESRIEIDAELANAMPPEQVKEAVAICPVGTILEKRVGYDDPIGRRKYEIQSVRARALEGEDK
T1 sequence (P22319 whole entry partner): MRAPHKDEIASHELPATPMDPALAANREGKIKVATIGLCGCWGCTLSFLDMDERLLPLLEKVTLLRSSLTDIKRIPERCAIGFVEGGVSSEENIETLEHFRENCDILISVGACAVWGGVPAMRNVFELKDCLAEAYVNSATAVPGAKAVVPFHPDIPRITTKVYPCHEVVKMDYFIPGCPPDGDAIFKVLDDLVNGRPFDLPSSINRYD
T1 sequence (P22320 2-464 partner): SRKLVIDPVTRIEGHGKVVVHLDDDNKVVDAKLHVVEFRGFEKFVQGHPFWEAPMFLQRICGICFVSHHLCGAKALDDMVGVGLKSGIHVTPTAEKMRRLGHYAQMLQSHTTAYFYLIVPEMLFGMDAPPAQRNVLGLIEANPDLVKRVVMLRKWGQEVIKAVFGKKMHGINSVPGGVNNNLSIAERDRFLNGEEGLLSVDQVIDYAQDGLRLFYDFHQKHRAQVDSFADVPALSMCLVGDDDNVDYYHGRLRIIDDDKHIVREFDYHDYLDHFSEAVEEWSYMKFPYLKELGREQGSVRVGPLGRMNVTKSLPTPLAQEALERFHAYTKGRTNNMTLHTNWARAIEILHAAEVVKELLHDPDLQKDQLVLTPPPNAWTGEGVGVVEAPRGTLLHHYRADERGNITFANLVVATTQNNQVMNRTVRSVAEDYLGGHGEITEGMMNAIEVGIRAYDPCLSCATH
Put plainly: H2-dependent NAD+ reduction at […] nm, soluble extract. The assay is classed as biochemical. The conditions noted are these: 1 mM NAD+, H2-saturated 50 mM Tris/HCl pH 8.0, anaerobic, 30 °C.

In assay [2] the target is T2, FOF1-ATPase (FOF1-ATP synthase) (Cupriavidus necator, UniProt Q0K5M2).
T2 construct: gene atpE; native complex in membrane vesicles (osmotic lysis), not purified; FOF1 share defined by DCCD sensitivity; with ATP synthase subunit a; ATP synthase subunit b; ATP synthase subunit alpha; ATP synthase subunit beta; ATP synthase gamma chain; ATP synthase subunit delta; ATP synthase epsilon chain
Description: phosphate release from ATP by membrane vesicles. Type of assay: biochemical. The conditions noted are these: 5 mM ATP, 1 mM MgSO4, 50 mM Tris-HCl pH 7.0, 30 °C; 10 min preincubation; FN-grown cells; overall ATPase activity of vesicles.

On to `NC(=O)c1ccc[n+]([C@@H]2O[C@H](COP(=O)(O)OP(=O)(O)OC[C@H]3O[C@@H](n4cnc5c(N)ncnc54)[C@H](O)[C@@H]3O)[C@@H](O)[C@H]2O)c1` [NAD^+], for which, in assay [1], the “H2-dependent NAD+ reduction at 365 nm, soluble extract” value was “hydrogen-oxidizing activity of SH was measured in anaerobic cuvettes with NAD^+”.

As to `C(=NC1CCCCC1)=NC1CCCCC1` [DCCD, N,N′-dicyclohexylcarbodiimide], in assay [2], the “fold inhibition at 0.2 mM” value is on record as ~ 2.3 fold.
